Measurements as given in the CheMixHub ionic liquid set.

Assay: xn = mol fraction of the nth substance listed

CC[n+]1ccn(C)c1.O=S(=O)([N-]S(=O)(=O)C(F)(F)F)C(F)(F)F + CCCCCCCCCCCC[n+]1ccn(C)c1.O=S(=O)([N-]S(=O)(=O)C(F)(F)F)C(F)(F)F
100 kPa, x2 = 0
Conditions | viscosity [mPa·s]
293 K | 36
313 K | 18

c1ccccc1 + CCCCCCCC[n+]1ccc2ccccc2c1.O=S(=O)([N-]S(=O)(=O)C(F)(F)F)C(F)(F)F
101 kPa, x1 = 1
Conditions | viscosity [mPa·s]
308.15 K | 0.53
328.15 K | 0.42

CO/N=C(\C(=O)N[C@@H]1C(=O)N2C(C(=O)[O-])=C(CSc3nc(=O)c(=O)[n-]n3C)CS[C@H]12)c1csc(N)n1.[Na+].[Na+] + CCCCCCCC[n+]1ccc(C)cc1.[Br-] + O
viscosity [mPa·s], 100 kPa
Conditions | x1 = 0.0003495, x2 = 0 | x1 = 0.0008732, x2 = 0 | x1 = 0.001391, x2 = 0 | x1 = 0.002502, x2 = 0 | x1 = 0.00312, x2 = 0 | x1 = 0.003888, x2 = 0 | x1 = 0.004767, x2 = 0 | x1 = 0.005484, x2 = 0
288.15 K | 1.196 | 1.273 | 1.365 | 1.604 | 1.745 | 1.964 | 2.205 | 2.45
293.15 K | 1.053 | 1.12 | 1.2 | 1.399 | 1.527 | 1.701 | 1.918 | 2.122
298.15 K | 0.935 | 0.994 | 1.062 | 1.231 | 1.348 | 1.495 | 1.674 | 1.858
303.15 K | 0.829 | 0.885 | 0.945 | 1.1 | 1.195 | 1.323 | 1.48 | 1.638
308.15 K | 0.744 | 0.794 | 0.849 | 0.982 | 1.07 | 1.184 | 1.322 | 1.455

CO + CCCCCCCCn1cc[n+](C)c1.[Cl-]
Conditions | viscosity [mPa·s]
313.15 K, 101 kPa, x1 = 1 | 0.444

CO/N=C(\C(=O)N[C@@H]1C(=O)N2C(C(=O)[O-])=C(CSc3nc(=O)c(=O)[n-]n3C)CS[C@H]12)c1csc(N)n1.[Na+].[Na+] + CCCCCC[n+]1ccc(C)cc1.[Br-] + O
viscosity [mPa·s], 100 kPa
Conditions | x1 = 0.0003495, x2 = 0 | x1 = 0.0008732, x2 = 0 | x1 = 0.001391, x2 = 0 | x1 = 0.002502, x2 = 0 | x1 = 0.00312, x2 = 0 | x1 = 0.003888, x2 = 0 | x1 = 0.004767, x2 = 0 | x1 = 0.005484, x2 = 0
288.15 K | 1.196 | 1.273 | 1.365 | 1.604 | 1.745 | 1.964 | 2.205 | 2.45
293.15 K | 1.053 | 1.12 | 1.2 | 1.399 | 1.527 | 1.701 | 1.918 | 2.122
298.15 K | 0.935 | 0.994 | 1.062 | 1.231 | 1.348 | 1.495 | 1.674 | 1.858
303.15 K | 0.829 | 0.885 | 0.945 | 1.1 | 1.195 | 1.323 | 1.48 | 1.638
308.15 K | 0.744 | 0.794 | 0.849 | 0.982 | 1.07 | 1.184 | 1.322 | 1.455

CC[n+]1ccn(C)c1.F[B-](F)(F)F + CCCCCC[n+]1ccn(C)c1.F[B-](F)(F)F
101 kPa, x1 = 1
Conditions | viscosity [mPa·s]
299.15 K | 34.52
308.15 K | 25.54
